Assays:
[1] = ref fu,p references of Table SI; cited from earlier work
[2] = source not given; cited from earlier work
[3] = Empirical plasma PK model; format: in vivo, rat; settings: for clearance: rat, plasma, iv
[4] = Drug transport clearance at the brain cell membrane in the PBPK model; design: species or system rat; settings: comparison of QBCM_in/QBCM_out with QBBB_in/QBBB_out
Free fraction in brain = format: in vitro ADME; settings: rat
[5] = rat; cited from earlier work
Asymmetry factors = assay: Asymmetry factors; design: species or system rat; settings: for AFin2, asymmetry factor: into CSFLV at BCSFB1; for AFin2, asymmetry factor / AFout2, asymmetry factor: calculated from Kp,uu,CSFLV; for AFin3, asymmetry factor: into CSFTFV at BCSFB2; for AFin3, asymmetry factor / AFout3, asymmetry factor: calculated from Kp,uu,CSFCM; for AFin1, asymmetry factor: into brainECF at BBB; for AFin1, asymmetry factor / AFout1, asymmetry factor: calculated from Kp,uu,brainECF; for AFout2, asymmetry factor: out from CSFLV at BCSFB1; for AFout3, asymmetry factor: out from CSFTFV at BCSFB2; for AFout1, asymmetry factor: out from brainECF at BBB
[6] = source not given; cited from earlier work; remark: listed apart in the source
[7] = rat plasma PK model, estimate (RSE, %)
[8] = rat plasma PK model, parameter estimate (RSE, %)

SMILES	Charge class [2]	ɷ_VPER1, interindividual variability [3, 7]	VPER1, distribution volume of the peripheral compartment 1 [3, 8]	VPL, distribution volume of the central compartment [3, 8]	ɷ_CLPL, interindividual variability [3, 7]	ɷ_QPL_PER2, interindividual variability [3, 7]	ɷ_VPL, interindividual variability [3, 7]	VPER2, distribution volume of the peripheral compartment 2 [3, 8]	clearance [3]	what limits the transport clearance from brainMV, via brainECF, to brainICF [4]	ɷ_QPL_PER1, interindividual variability [3, 7]	AFin2, asymmetry factor (Asymmetry factors)	AFin3, asymmetry factor (Asymmetry factors)	AFin1, asymmetry factor (Asymmetry factors)	AFout2, asymmetry factor (Asymmetry factors)	AFout3, asymmetry factor (Asymmetry factors)	AFout1, asymmetry factor (Asymmetry factors)	other results
CC(=O)Nc1ccc(O)cc1 [Acetaminophen]	Neutral	51.8 (86.0) %	363 (33.1) mL	49.5 (59.0) mL	–	–	–	–	–	–	–	–	–	–	–	–	–	fu,p, free fraction in plasma [1]: 0.81; Fraction, percentage of the drug which is reabsorbed by enterohepatic circulation [3, 8]: 0.693 (19.6)
CC(C)NCC(O)COc1ccc(CC(N)=O)cc1 (stereo not drawn) [Atenolol]	Base	–	–	–	–	–	–	–	–	–	–	–	–	–	–	–	–	–
CN(Cc1cnc2nc(N)nc(N)c2n1)c1ccc(C(=O)N[C@@H](CCC(=O)O)C(=O)O)cc1 [Methotrexate]	Acid	–	111 (14.6) mL	28.0 (55.0) mL	37.4 (46.8) %	42.5 (42.0) %	40.4 (75.5) %	83.5 (34.9) mL	8.04 mL/min	limited by QBCM_in and QBCM_out	–	–	–	–	–	–	–	–
CN1CC[C@]23c4c5ccc(O)c4O[C@H]2[C@@H](O)C=C[C@H]3[C@H]1C5 [Morphine]	Base	46.0 (15.3) %	–	–	17.8 (39.5) %	86.7 (19.3) %	80.6 (17.2) %	–	–	–	28.8 (29.4) %	–	–	–	–	–	–	ɷ_study1, interoccasional variability [3, 7]: 42.7 (16.2) %; ɷ_study2, interoccasional variability [3, 7]: 29.7 (30.5) %
Cc1nc2n(c(=O)c1CCN1CCC(c3noc4cc(F)ccc34)CC1)CCCC2O (stereo not drawn) [Paliperidone]	Base	–	3,580 (35.8) mL	26,400 (12.6) mL	42.0 (62.5) %	–	47.5 (81.4) %	–	196 mL/min	limited by QBBB_in and QBBB_out	–	1.0	1.0	1.0	3.7	4.7	3.0	pKa (acid) [2]: 13.7; fraction unbound (Free fraction in brain): 0.065; Kp,uu,CSFCM, unbound CSFCM-to-plasma concentration ratio [5]: 0.50; Kp,uu,CSFLV, unbound CSFLV-to-plasma concentration ratio [5]: 0.50; Kp,uu,brainECF, unbound brain extracellular fluid-to-plasma concentration ratio [5]: 0.50
O=C1NC(=O)C(c2ccccc2)(c2ccccc2)N1 [Phenytoin]	Neutral	–	2,050 (7.50) mL	943 (21.5) mL	73.8 (12.5) %	–	75.0 (27.2) %	–	36 mL/min	limited by QBBB_in and QBBB_out	–	1.0	1.0	1.0	7.6	7.7	4.2	fu,b, free fraction in brain [6]: 0.080; Kp,uu,CSFCM, unbound CSFCM-to-plasma concentration ratio [5]: 0.26; Kp,uu,CSFLV, unbound CSFLV-to-plasma concentration ratio [5]: 0.26; Kp,uu,brainECF, unbound brain extracellular fluid-to-plasma concentration ratio [5]: 0.26
C=C[C@H]1C[N@@]2CC[C@H]1C[C@@H]2[C@@H](O)c1ccnc2ccc(OC)cc12 [Quinidine]	–	12.8 (26.6) %	–	–	23.9 (15.3) %	–	–	–	–	–	24.3 (28.2) %	–	–	–	–	–	–	–
CCN1CCC[C@H]1CNC(=O)c1c(O)c(Cl)cc(Cl)c1OC [Raclopride]	Zwitterion	–	684 (19.2) mL	48.9 (16.3) mL	14.4 (29.8) %	–	–	493 (18.3) mL	46.4 mL/min	limited by QBBB_in and QBBB_out	–	1.0	1.0	1.0	1.1	1.9	1.4	pKa (acid) [2]: 5.9; pKa (base) [2]: 9.0
CCN1CCC[C@H]1CNC(=O)c1c(OC)ccc(Br)c1OC [Remoxipride]	Base	–	253 (10.9) mL	83.7 (18.3) mL	31.0 (12.0) %	76.7 (13.5) %	64.1 (32.9) %	757 (4.00) mL	42.2 mL/min	–	25.1 (12.1) %	–	–	–	–	–	–	–
Cc1nc2n(c(=O)c1CCN1CCC(c3noc4cc(F)ccc34)CC1)CCCC2 [Risperidone]	Base	–	–	43,100 (28.1) mL	72.5 (38.7) %	–	53.7 (78.8) %	–	886 mL/min	limited by QBBB_in and QBBB_out	–	1.0	1.0	1.0	1.3	1.5	1.3	fu,b, free fraction in brain [6]: 0.065

Source: publication PMC5702903 (CPT: Pharmacometrics & Systems Pharmacology, 2017)
